Like-named read-outs stand apart in the source and are kept apart here.
Test system: A549 adenocarcinoma cell line
Assay: In vitro antitumor screening, MTS assay
Format: cell-based
Settings: Homo sapiens
Method: The synthesized derivatives were tested for their antitumor activity adopting MTS assay against A549 adenocarcinoma cell line following the reported assay method In Riss et al. Results are shown in Table 2.

[1] = A549 adenocarcinoma cell line, Table 2, read-out: IC50
[2] = A549 cell line, read-out: IC50, MTS assay against A549 cell line

| IC50 [1] | IC50 [2] | SMILES |
| --- | --- | --- |
| 1600 nM | 1600 nM | N#Cc1c(NC(=O)NCc2ccccc2)sc2c1CCCC2 [Compound 11] |
| 2700 nM | 2700 nM | N#Cc1c(NCc2ccc(Br)cc2)sc2c1CCCC2 [Compound 10] |
|  | 7600 nM | N#Cc1c(NC(=O)c2cccc(Br)c2)sc2c1CCCC2 [Compound 4] |

Reference: US12624015B2, “JNK inhibitors as anticancer agents” (University of Iowa Research Foundation, priority 2019, dated 2026)
